Measurements as given in ChEMBL document CHEMBL1144234, “Novel design principle validated: glucopyranosylidene-spiro-oxathiazole as new nanomolar inhibitor of glycogen phosphorylase, potential antidiabetic agent” (Bioorg Med Chem Lett, 2008).

Target: T1, Glycogen phosphorylase, muscle form (Oryctolagus cuniculus, UniProt P00489)
T1 sequence (P00489 whole entry): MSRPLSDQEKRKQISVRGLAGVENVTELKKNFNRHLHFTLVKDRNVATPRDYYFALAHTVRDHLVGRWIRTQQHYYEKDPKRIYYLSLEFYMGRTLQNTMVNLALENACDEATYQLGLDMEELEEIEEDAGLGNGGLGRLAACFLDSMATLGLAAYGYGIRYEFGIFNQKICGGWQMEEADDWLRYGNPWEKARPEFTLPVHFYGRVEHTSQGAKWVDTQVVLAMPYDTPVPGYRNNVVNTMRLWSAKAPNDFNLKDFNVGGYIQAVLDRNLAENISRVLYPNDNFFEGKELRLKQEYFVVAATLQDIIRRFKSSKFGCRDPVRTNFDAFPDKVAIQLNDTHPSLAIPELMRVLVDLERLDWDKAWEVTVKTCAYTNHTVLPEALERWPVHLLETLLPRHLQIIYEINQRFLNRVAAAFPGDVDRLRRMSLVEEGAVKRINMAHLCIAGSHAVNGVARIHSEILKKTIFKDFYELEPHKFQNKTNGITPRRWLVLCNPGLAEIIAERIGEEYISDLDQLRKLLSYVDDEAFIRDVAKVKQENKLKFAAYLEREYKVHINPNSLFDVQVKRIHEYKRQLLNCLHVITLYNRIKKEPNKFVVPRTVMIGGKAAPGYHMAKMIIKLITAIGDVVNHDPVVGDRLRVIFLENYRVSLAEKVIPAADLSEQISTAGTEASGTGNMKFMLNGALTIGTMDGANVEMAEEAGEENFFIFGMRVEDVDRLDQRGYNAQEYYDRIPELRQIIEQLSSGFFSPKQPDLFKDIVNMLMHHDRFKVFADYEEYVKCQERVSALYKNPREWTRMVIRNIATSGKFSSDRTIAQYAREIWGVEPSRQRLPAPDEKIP
Description: Inhibition of rabbit muscle glycogen phosphorylase b

Row | SMILES | Ki [µM]
1 | O=C(N[C@@H]1O[C@H](CO)[C@@H](O)[C@H](O)[C@H]1O)c1cccc2ccccc12 | 444
2 | O=C(NC1O[C@H](CO)[C@@H](O)[C@H](O)[C@H]1O)c1ccccc1 (single isomer, unassigned) | 81
3 | O=C(NC(=O)c1cccc2ccccc12)N[C@@H]1O[C@H](CO)[C@@H](O)[C@H](O)[C@H]1O | 5
4 | OC[C@H]1O[C@]2(ON=C(c3ccc(F)cc3)S2)[C@H](O)[C@@H](O)[C@@H]1O | 28
5 | COc1ccc(C2=NO[C@]3(O[C@H](CO)[C@@H](O)[C@H](O)[C@H]3O)S2)cc1 | 8
6 | CC(=O)NC(=O)N[C@@H]1O[C@H](CO)[C@@H](O)[C@H](O)[C@H]1O | 305
7 | CC(=O)NC1O[C@H](CO)[C@@H](O)[C@H](O)[C@H]1O (single isomer, unassigned) | 32
8 | OC[C@H]1O[C@]2(ON=C(c3ccccc3)S2)[C@H](O)[C@@H](O)[C@@H]1O | 26
9 | O=C(NC(=O)c1ccc2ccccc2c1)N[C@@H]1O[C@H](CO)[C@@H](O)[C@H](O)[C@H]1O | 0.35
